Series [1] has as its system Neh2-luc reporter (SH-SY5Y cell line). The experiment in a line: Neh2-luc reporter assay. It counts as cell-based. The following applies: for Neh2-luc fold activation / fold induction at 10 µM: at 10 µM, 3 h incubation; for EC50: Neh2-luc; for fold induction at 10 µM: read-out: Neh2-luc fold activation. As to the method: (§1) SH-SY5Y cell lines stably expressing HIF1 ODD-luc or Neh2-luc reporters were grown in the DMEM/F12 supplemented with GlutaMAX (Thermo Fisher Scientific) containing 10% FBS, 100 U/ml penicillin, and 100 μg/ml streptomycin and plated into 384-well white flat-bottom plates at 7,000 cell/well in 30 µl serum and incubated overnight at 37°C, 5% CO2. The next day compounds were added to a final concentration of 10 µM and the plates were incubated for 3 hours at 37°C. Reporter activation after 3 h incubation with the studied compound was compared to that for ciclopirox (HIF1 ODD-luc reporter) or TBHQ (Neh2-luc reporter), taken as 100%. Luciferase reporter activity was measured with a SteadyGlo reagent from Promega providing stable reading for 1 h.
(§2) Cells were plated at the density of 25,000 cell per well using a WellMate multichannel dispenser from Matrix (Thermo Fisher Scientific, Waltham, MA) and grown overnight on DMEM/F12+GlutaMAX (100 µl per well). Then an inhibitor was added, and the plates were incubated for a fixed time interval; the medium was removed, cells lysed, and luciferase activity was measured on a SpectraMax M5e platereader (Molecular Devices, Sunnyvale, CA) with BrightGlo™ reagent (Promega, Madison, WI). The reporter activation was normalized to the background luminescence. The effect of 0.5 mM N-acetylcysteine (NAC) was studied by simultaneous addition of 5 µL of 10 mM stock of NAC in water and 2 µL of 50x stock solutions of a flavonoid in DMSO.
A general note: Reporter assays use an easily measured gene product as a stand-in for the process of interest.

Series [2] deals with HIF1 ODD-luc reporter (SH-SY5Y cell line). Kind of series: HIF1 ODD-luc reporter assay. The series is classed as cell-based. As to conditions: for fold induction at 10 µM: 3 h, read-out: ODD-luc fold activation; for fold induction at 10 µM / ODD-luc fold activation: 3 h incubation, at 10 µM. As to the method: as §1, §2
Details of series [3]: method as in PMID 17112238. As to conditions: cited from earlier work.
A short description of series [4]: Iron binding constant, calcein displacement assay. It counts as physicochemical. As to conditions: for Iron complex Diss. Const: calcein displacement. The text has this:
Calcein displacement assay in the presence of varied concentrations of flavonoids and catechols has been used. Calcein release from its complex with iron was monitored by fluorescence as described in [26].

For series [5], the system named is HRE-luciferase reporter (HT22 hippocampal cell line). Kind of series: HRE-luc reporter assay. The series is classed as cell-based. As to conditions: at 10 µM; for fold induction at 10 µM: Mus musculus, HT-22, 3 h, read-out: HRE-luc fold activation. The text has this: A promoter-reporter construct that contained 68 bp of a known hypoxia and HIF-1 regulated gene, enolase, containing a wild type hypoxia response element (HRE, 5’-RCTGT-3’), is a widely used approach for screening for HIF activators of different mechanism of action. A cell-based assay with HRE-luciferase reporter system is based on transfected immortalized hippocampal cell line (HT22) and allows screening for a broad spectrum of compounds that include: activators of HIF transcription; activators of HIF binding to HRE; and effectors of HIF protein stability (PHD inhibitors, pVHL & proteasome inhibitors). The assay was performed the same way as for HIF ODD-luc reporter except the cells were plated at the density of 10,000 cell per well and incubated overnight.

Series [6] in a line: Non-enzymatic ferricyanide reduction rate constant. It counts as physicochemical. The following applies: 1 mM ferricyanide, pH 7.0. The protocol: The rate of ferricyanide reduction by individual flavonoids was measured spectrophotometrically at 420 nm with the fixed concentration of ferricyanide (1 mM) and varied concentrations of a flavonoid in Potassium-phosphate buffer, pH 7.0. The rate constant for direct ferricyanide reduction was calculated from the slope of the dependence reaction rate vs flavonoid concentration and used as a measure of flavonoid non-specific reducing power.

In series [7] the test system is primary neuronal cultures treated with 5 mM HCA. The experiment in a line: Glutathione depletion (HCA) model, MTT viability. The following applies: for EC50: Rattus norvegicus, results not shown, read-out: EC50 of protection in glutathione depletion model. The series is classed as cell-based, rat. The protocol: Primary neuronal cultures were prepared from the forebrains of Sprague-Dawley rat embryos (E17) and plated on 96 well plates at a 10^6 cells/ml density. After 24 hours, cells were rinsed with warm PBS and then placed in minimum Essential Medium (MEM; Life Technologies, Grand Island, NY) containing 5 mM HCA in the presence of a compound of interest at varied concentrations. Cells were incubated for 24 h or longer to see 90% cell death in HCA treated controls. Viability was assessed by the MTT (4,5-dimethylthiazol-2-yl)-2,5-diphenyltetrazolium bromide) assay.

Another series addresses HIF PHD2. As to conditions: competitive with α-KG; read-out: PHD2 Ki; cited from earlier work.

Take `O=c1cc(-c2ccccc2)oc2c(O)c(O)ccc12` [compound 20, 7,8-Dihydroxyflavone]: the Neh2-luc fold activation entry in series [1] is listed as “Inactive”. In addition, in series [2] (Homo sapiens, SH-SY5Y), the fold induction at 10 µM came to 1.5 ± 0.2. Further, in series [3], the EHOMO was -9.23 eV. Besides, in series [4], the iron dissociation constant result is reported as “ca. 700 nM” and the “Iron complex Diss. Const” value was 0.7 ± 0.1 µM. In addition, the fold induction at 10 µM in series [5] was 3.6 ± 0.4.
As for `O=c1c(O)c(-c2ccc(O)cc2)oc2cc(O)cc(O)c12` [compound 9, Kaempferol], in series [1] (Homo sapiens, SH-SY5Y), the response was half-maximal at 5 µM (EC50) and the fold induction at 10 µM stood at 15 ± 2. Further, the “drop in Neh2-luc reporter activation with NAC” value in series [1] (simultaneous addition of 0.5 mM NAC, results not shown) turned out to be 2 fold. Also, the ODD-luc fold activation entry in series [2] is reported as “Inactive”. Also, the EHOMO in series [3] was -8.74 eV. Further, the “Iron complex Diss. Const” value in series [4] is 2.5 ± 0.3 µM. Moreover, the fold induction at 10 µM in series [5] is 1.5 ± 0.2. Further, the “FC red Rate Const” value in series [6] came out at 369000 ± 42000 M⁻¹ s⁻¹.
Regarding `O=c1c(O)c(-c2ccccc2)oc2cc(O)cc(O)c12` [compound 8, Galangin], the Neh2-luc fold activation entry in series [1] is recorded as “Inactive”. The ODD-luc fold activation result in series [2] is “Inactive”. Moreover, in series [3], the EHOMO is -8.90 eV. For the same compound, the “Iron complex Diss. Const” value in series [4] is 3.5 ± 0.4 µM. Also, the fold induction at 10 µM in series [5] turned out to be 1.3 ± 0.2. Further, in series [6], the “FC red Rate Const” value amounted to 48000 ± 6000 M⁻¹ s⁻¹.
Take `O=c1cc(-c2ccccc2)oc2cc(O)cc(O)c12` [compound 15, Chrysin]: the Neh2-luc fold activation result in series [1] is “Inactive”. The ODD-luc fold activation entry in series [2] is recorded as “Inactive”. The EHOMO in series [3] is -9.25 eV. For the same compound, the “Iron complex Diss. Const” value in series [4] is listed as “Inactive”. Further, the fold induction at 10 µM in series [5] came out at 1.2 ± 0.15.
Regarding `C[C@@](Cc1ccc(O)c(O)c1)(NN)C(=O)O` [compound 31, N-Aminomethyldopa, reference compound], the EC50 (as a rule, the midpoint of the concentration-response curve) in series [7] is above 20 µM; in series [1] (Homo sapiens, SH-SY5Y), 20 µM. Moreover, the Neh2-luc fold activation entry in series [1] is “Inactive”. Further, in series [2], the ODD-luc fold activation entry was “Inactive”. Also, the “Iron complex Diss. Const” value in series [4] is 2.5 ± 0.3 µM. Moreover, in series [5], the HRE-luc fold activation entry is reported as “Inactive”.
Regarding `O=c1c(-c2ccc(O)c(O)c2)coc2cc(O)ccc12` [compound 27, 3’-Hydroxy-daidzein], the “neuroprotection in glutathione depletion model” value in series [7] is recorded as “protective”. The “concentration at which neuroprotection begins” value in series [7] (glutathione depletion model, Fig. 5) came out at 2.5 µM. In series [1], this compound gave an EC50 of 5 µM and a Neh2-luc fold activation of 15±2 fold. Further, the Neh2-luc fold activation result in series [1] (listed as 3’-hydroxydaidzein) is on record as “active”. In addition, the ODD-luc fold activation in series [2] is given as 2.5±0.3 fold. Also, the “Iron complex Diss. Const” value in series [4] is 3.5 ± 0.4 µM. Moreover, the HRE-luc fold activation in series [5] turned out to be 2.5±0.3 fold.
For the compound `O=c1c(O)c(-c2ccc(O)cc2O)oc2cc(O)cc(O)c12` [compound 12, Morin], the Neh2-luc fold activation result in series [1] is “Inactive”; in series [1] (listed as morin), “completely inactive”. In addition, the ODD-luc fold activation entry in series [2] is recorded as “Inactive”. Besides, in series [3], the EHOMO is reported as -8.81 eV. The “Iron complex Diss. Const” value in series [4] is 2.5 ± 0.3 µM. Further, the fold induction at 10 µM in series [5] is 1.3 ± 0.2.
In series [1] (Homo sapiens, SH-SY5Y), `O=c1c(O)c(-c2cc(O)c(O)c(O)c2)oc2cc(O)cc(O)c12` [compound 13, Myricetin] gave an EC50 of 2 µM. Also, the fold induction at 10 µM was 25 ± 3 in series [1] (Homo sapiens, SH-SY5Y); 1.3 ± 0.2 in series [2] (Homo sapiens, SH-SY5Y); 2 ± 0.2 in series [5]. In addition, in series [3], the EHOMO is -8.80 eV. For the same compound, the “Iron complex Diss. Const” value in series [4] is 2.0 ± 0.2 µM.
In the case of `O=c1c(O)c(-c2ccccc2)oc2cc(O)ccc12` [compound 2, 3,7-Dihydroxy-], the “Iron complex Diss. Const” value in series [4] was 2.5 ± 0.3 µM. The “FC red Rate Const” value in series [6] is “inactive”.
Regarding `O=c1c(O)c(-c2ccccc2)oc2cccc(O)c12` [compound 7, 3,5-Dihydroxy-], the Neh2-luc fold activation entry in series [1] is recorded as “Inactive”. The fold induction at 10 µM is 1.3 ± 0.2 in series [2] (Homo sapiens, SH-SY5Y) and 2 ± 0.2 in series [5]. The “Iron complex Diss. Const” value in series [4] is 2.5 ± 0.3 µM. The “FC red Rate Const” value in series [6] was “inactive”.
Regarding `O=c1c(O)c(-c2ccccc2)oc2ccccc12` [compound 1, 3-Hydroxyflavone], the Neh2-luc fold activation entry was “inactive” in series [1] and “completely inactive” in series [1] (listed as 3-hydroxyflavone). The fold induction at 10 µM in series [2] (Homo sapiens, SH-SY5Y) was determined as 1.5 ± 0.2; in series [5] it was 1.5 ± 0.2. The “Iron complex Diss. Const” value in series [4] is 2.0 ± 0.2 µM; in series [4] (listed as 3-Hydroxyflavone), “ca. 2 µM”. Further, in series [6], the “FC red Rate Const” value was “inactive”.
For the compound `O=c1c(O)c(-c2ccc(O)cc2)oc2ccccc12` [compound 3, 3,4'-Dihydroxy-], the ODD-luc fold activation entry in series [2] was “Inactive”. In series [4], the “Iron complex Diss. Const” value is 2.5 ± 0.2 µM. Besides, the HRE-luc fold activation entry in series [5] is given as “Inactive”. In series [6], the “FC red Rate Const” value is “Inactive”.
`O=c1cc(-c2ccc(O)cc2)oc2cc(O)cc(O)c12` [compound 16, Apigenin]: the Neh2-luc fold activation result in series [1] is on record as “Inactive”. Moreover, in series [2], the ODD-luc fold activation entry is “Inactive”. Further, the EHOMO in series [3] was -9.15 eV. Besides, the “Iron complex Diss. Const” value in series [4] was “Inactive”. For the same compound, the fold induction at 10 µM in series [5] was found to be 1.3 ± 0.15.
For `O=c1cc(-c2ccccc2)oc2cccc(O)c12` [compound 14, 5-hydroxyflavone], in series [1], the Neh2-luc fold activation entry is listed as “Inactive”. Further, the ODD-luc fold activation entry in series [2] is on record as “Inactive”. Moreover, in series [3], the EHOMO is -9.12 eV. Further, the “Iron complex Diss. Const” value is on record as “Inactive” in series [4] and “does not bind iron in solution” in series [4] (listed as 5-hydroxyflavone). For the same compound, the HRE-luc fold activation result in series [5] was “Inactive”.
As for `N[C@@H](Cc1ccc(O)c(O)c1)C(=O)O` [compound 29, 3,4-Dihydroxy-L-phenylalanine, reference compound], the EC50 in series [7] came out at 6 µM; in series [1] (Homo sapiens, SH-SY5Y), 20 µM; in series [2] (Homo sapiens, SH-SY5Y), 15 µM. Also, the Neh2-luc fold activation entry in series [1] is on record as “Inactive”. The fold induction at 10 µM was determined as 2 ± 0.25 in series [2] (Homo sapiens, SH-SY5Y) and 1.7 ± 0.2 in series [5]. For the same compound, the “Iron complex Diss. Const” value in series [4] was 2.5 ± 0.3 µM.
As for `O=c1cc(-c2ccccc2)oc2cc(O)c(O)c(O)c12` [compound 17, Baicalein], the Neh2-luc fold activation entry in series [1] is listed as “Inactive”. In addition, in series [2], the ODD-luc fold activation result is “Inactive”. In addition, the Ki (usually the equilibrium dissociation constant of an inhibitor or competing ligand from its target) at HIF PHD2 is 7 µM. Also, in series [3], the EHOMO was -8.99 eV. For the same compound, the “Iron complex Diss. Const” value in series [4] was 2.5 ± 0.3 µM. Moreover, the fold induction at 10 µM in series [5] worked out at 5 ± 0.6. Also, the “FC red Rate Const” value in series [6] stood at 25500 ± 3000 M⁻¹ s⁻¹.

These data come from paper PMC5201116, “Bioactive Flavonoids and Catechols as Hif1 and Nrf2 Protein Stabilizers - Implications for Parkinson’s Disease” (Aging and Disease, 2016).
